Measured values: the NIST ThermoML archive (doi:10.1016/j.jct.2005.02.005)
± gives the expanded uncertainty stated by the source.

Tests used:
[1] = Liquid; for mass density: 293.15 K, 101.33 kPa
[2] = refractive index (Na D-line) (dimensionless); conditions: 293.15 K; 101.33 kPa; Liquid; Standard Abbe refractometry

CCC(=O)O [propanoic acid]
mass density [1]: 992.7 ± 0.5 kg/m3
Normal boiling temperature [1]: 141.0 ± 0.1 °C
refractive index [2]: 1.3811 ± 0.0008

CCOC(=O)c1ccccc1C(=O)OCC [diethyl phthalate]
mass density ([1]; Vibrating tube method): 1117.2 ± 0.6 kg/m3
Normal boiling temperature [1]: 298.02 ± 0.1 °C
refractive index [2]: 1.5003 ± 0.0008
